Source: patent US20230065562A1, “DUAL CONTROLS FOR THERAPEUTIC CELL ACTIVATION OR ELIMINATION” (Bellicum Pharmaceuticals, Inc., priority 2015, published 2023)
pIC50: −log10 of the molar value. Where two headings read alike, the source gives them in different places.

Assays:
[1] = test system: dual-switch TCR-modified T cells; settings: 10 nM Rap; 14±4% without drug
[2] = test system: iRmC9 T cells (pBP1327, GFP-Fluc); assay: In vivo apoptotic activation in NSG mice, iRmC9 T cells (IVIS imaging, spleen FACS); design: species or system mouse; settings: 5 mg/kg rimiducid or 10 mg/kg rapamycin i.p.; spleen FACS, FIG. 109D
Method: (§1) PBMCs from donor 676 were activated and co-transduced with one of the off-switches and GFP-Fluc retroviruses. Eleven days after transduction, cells were analyzed for transduction efficiency with GFP and anti-CD3/anti-CD19 antibodies (FIG. 109A). […] The CD19^+ MFI for the different T cell populations were: iC9=15.07, iRC9=14.38, and iRmC9=13.39. The cells were collected, counted, washed, and resuspended at 1×10^6 cells in 100 μl PBS for each tail vein mouse injection (Table 10) (time=−18 hr). […] IVIS imaging was performed at −14, 0, 5, 24 and 29 hours. Mice were sacrificed and spleens were collected for FACS analysis with hCD3, hCD19 and mCD45 antibodies. […] The higher percentage of remaining iRmC9 T cells observed may be due to an artifact of normalizing the no drug group.
(§2) PBMCs from donor 676 were activated and co-transduced with retroviruses encoding the pBP0220, 1310, 1327 vectors and the GFP-Fluc plasmid. (FIG. 109A) Eleven days post transduction, the cells were analyzed for CD19 and GFP transduction efficiency prior to injection into mice. (FIGS. 109B & C) NSG mice were injected i.v. with 107 T cells co-transduced with GFP-Fluc per mouse and suicide drugs were injected i.p. the next day. Bioluminescence of cells was assessed at −14, 0, 5, 24, and 29 hours post-drug administration. (FIG. 109D) At 29-h post-drug treatment, mice were euthanized and spleens were collected for flow cytometry analysis with antibodies to hCD3, hCD34, and mCD45

[3] = test system: iRC9 T cells (pBP1310, GFP-Fluc); assay: In vivo apoptotic activation in NSG mice, iRC9 T cells (IVIS imaging, spleen FACS); design: species or system mouse; settings: 10 mg/kg rapamycin i.p., at 24 hours, FIG. 109D
Method: as §1
as §2, with “(FIG. 109D) At 29-h post-drug treatment, mice were euthanized and spleens were collected for flow cytometry analysis with antibodies to hCD3, hCD34, and mCD45” left out

[4] = test system: T cells expressing ΔC9 alone (pBP1501); assay: T cell killing assay with caspase 3/7 green reagent monitored by IncuCyte, negative control ΔC9; format: cell-based, human; settings: increasing doses, FIG. 108B
Description: To determine the functionality of these switches in activated T cells, retroviral supernatants were produced and transduced into PBMCs activated from 3 separate donors.

293 cells [5] = assay: 293 cells transfected with iC9 or iRC9: caspase 3/7 (IncuCyte) and SRα SEAP assays; format: cell-based
Method: 293 cells were seeded at 300,000 cells/well in a 6-well plate and allowed to grow for 2 days. After 48 h, cells were transfected with 1 μg of experimental plasmids. Cells were harvested 48 h after transfection and diluted 2.5× their original volume.
For FIG. 52B left graph, the lines of the graph, as indicated at the 10^3 point of the x-axis are, from top to bottom, negative control, FKBP.FRB.C9, FRB.FKBP.C9, iC9. For FIG. 52B right graph, the lines of the graph at the 10^3 point of the x-axis are, from top to bottom negative control, iC9, FKBP.FRB.C9, and FRB.FKBP.C9.
On day 0, 5×10^5 293 cells were seeded onto 6-well plates in 2 ml DMEM medium (10% FBS+1% pen/strep). […] On day 2, cells were collected, and seeded onto 96-well plates containing 2× concentrated half-log drug dilutions and also analyzed by FACS for transfection efficiency. On day 3, the drug-treated cells were heat inactivated at 68° C. for 1 hour and supernatants were added to black 96-well plate containing 1 mM MUP substrate (2× concentration) diluted in 2M diethanolamine. The plates were incubated at 37° C. for 30 min and absorbance at 405 nm was measured.

[6] = test system: EGFPluciferase-labeled T cells; assay: In vivo function of rapamycin/rimiducid-inducible Caspase-9 switches in NSG mice (luciferase-labeled T cells)
Method: T cells were activated and co-transduced with the “iMC+CARζ”, SFG-iMC-2A-CAR.ζ vector, and a iC9-X vector, SFG-FRB.FKBP12.C9-2A-ΔCD19 to create a CombiCAR.
8-week-old female, immune-deficient mice (NOD.CgPrkdc^scidIl2^tm1Wjl/SzJ; NSG) were injected IV with 1×10^6 T cells in 100 p1 PBS. Mice were subjected to IVIS imaging ˜4 hrs after T cell injection (˜14 hrs post-drug administration). […] Mice were imaged again at 5-6 hrs, and 24 hrs after drug injection. Mice were sacrificed and spleens were removed for FACS analysis.
Mice were imaged for firefly luciferase-derived bioluminescence at the indicated time points relative to administration of drug or vehicle.

293 cells [7] = assay: SEAP assay: FRB-tagged CAR plus iCaspase-9 in 293 cells; format: cell-based; settings: FRB-tagged CAR plus FKBP-tagged Caspase-9
Description: FIGS. 6A and 6B provide the results of an assay of two-tiered activation of apoptosis.
As a proof of principal, two tandem FRB, domains were fused to either a 1st generation Her2-CAR or to a 1st generation CD19-CAR co-expressing inducible Caspase-9. 293 cells were transiently transfected with a constitutive reporter plasmid, SRα-SEAP, along with normalized levels of expression plasmids encoding Her2-CAR-FRB2, iCaspase-9, Her2-CAR-FRBl2+iCasp9, iC9-CAR(19).FRBl2 (coexpressing both CD19-CAR-FRBl2 and iCaspase9), or control vector. […] After overnight incubation with drugs, SEAP activity was determined. […] This dose-dependent decrease required the presence of both the FRB-tagged CAR and the FKBP-tagged Caspase-9. […] Moreover, on- or off-target-mediated CAR clustering should increase the sensitivity of killing primarily at the site of scFv engagement.

293 cells [8] = test system: 293 cells
Method: FIG. 12B: Cultures of HEK-293 cells were transfected (via Genejuice, Novagen) with the constitutive SRα-SEAP reporter plasmid (pBP0046, 1 μg), a fusion of human FKBP12 with human Caspase-9 (pBP0044, 2 μg) and FRB-encoding expression constructs, containing four copies of FRBL (pBP0725, 2 μg) or control vectors encoding zero or one copy of FRBL.
To determine if iCaspase-9 could be aggregated by tandem multimers of FRBL, one to four tandem copies of FRBL were subcloned into an expression vector, pSH1, driving transgene expression from an SRα promoter. […] 293 cells were transfected with the SRα-SEAP reporter plasmid along with FKBP12-ΔCaspase-9 (iCaspase-9/iC9), plus 1 of several FRB-based, non-myristoylated scaffold proteins containing 0, 1, or 4 tandem copies of FRBL.

HPAC PSCA+ tumor cells = assay: T cell anti-tumor assay with HPAC-RFP cells (IncuCyte, ELISA); format: cell-based, human; settings: 10 nM on day 7 of co-culture
Method: PBMCs from donor 920 were activated and co-transduced with GFP-Ffluc and iMC+CARζ-T (189), i9+CARζ+MC (873), or FwtFRBC9/MC.FvFv (1308)-encoding vectors. […] (A & B) Two days post-seeding, culture supernatants were analyzed for IL-2, IL-6, and IFN-γ production by ELISA. […] Numbers of HPAC-RFP and T cell-GFP at the E:T 1:2 ratio was analyzed using the basic analyzer software for the IncuCyte at day 7 (Ci) and day 8 with 0 nM suicide drug (Cii) and 10 nM suicide drug (Ciii). Similar analysis was also performed at the 1:5 E:T ratio (D). (Note: the y-axis in Ci and Di are at log-scale).
The HPAC PSCA^+ tumor cells were stably labeled with nuclear-localized RFP protein using the NucLight™ Red Lentivirus Reagent (Essen Bioscience, 4625). To set up the coculture, 4000 HPAC-RFP cells were seeded per well of 96-well plates in 100 μl of CTL medium without IL-2 for at least 4 hours to allow tumor cells to adhere. After transduction with the appropriate retrovirus and allowed to rest for at least 7 days in culture, T were seeded according to various E:T ratios to the HPAC-RFP-containing 96-well plates. […] Each plate was set up in duplicates, one plate to monitor with the IncuCyte cell imaging system and one plate for supernatant collection for ELISA assay on day 2. The plates were centrifuged for 5 min at 400×g and placed inside the IncuCyte (Essen Bioscience, Dual Color Model 4459) to monitor red fluorescence (and green fluorescence if T cells were labeled with GFP-Ffluc) every 2-3 hours for a total of 7 days at 10× objective. Image analysis was performed using the “HPAC-RFP_TcellsGFP_10×_MLD” processing definition. On day 7, HPAC-RFP cells were analyzed using the “Red Object Count (1/well)” metric. […] On day 8, Tcell-GFP cells were analyzed using the “Total Green Object Integrated Intensity” metric. Each condition was performed at least in duplicates and each well was imaged at 4 different locations.

293 cells [9] = test system: 293 cells; remark: listed apart in the source
Description: To determine if the polarity of heterodimerization and Caspase-9 assembly could be reversed, one to four 1 to 4 tandem copies of FKBP12 were subcloned into expression vector, pSH1, as above. […] As above, 293 cells were transfected with the SRα-SEAP reporter plasmid along with FRBL-ΔCaspase-9, plus a non-myristoylated scaffold protein containing 1 or 4 tandem copies of FKBP12.

CO[C@H]1C[C@@H]2CC[C@@H](C)[C@@](O)(O2)C(=O)C(=O)N2CCCC[C@H]2C(=O)O[C@H]([C@H](C)C[C@@H]2CC[C@@H](O)[C@H](OC)C2)CC(=O)[C@H](C)/C=C(\C)[C@@H](O)[C@@H](OC)C(=O)[C@H](C)C[C@H](C)/C=C/C=C/C=C/1C [rapamycin]
Annexin-V+ cells [1]: 72±5%
iRmC9 T cells remained in splenocytes (normalized to no drug group) [2]: ~40%
iRC9 T cells remained in splenocytes compared to no drug- and rimiducid-treated groups [3]: ~25%
activity of negative control ΔC9 alone (pBP1501) in T cells [4]: not active
rapamycin concentration at which iRC9 is highly active (293 cells [5]): 100 µM
cell death of T cells within 24 hours in vivo [6]: 90%
maximal decrease of SEAP activity (293 cells [7]): ~50%
pIC50 (293 cells [8]): ~8.52
elimination of FwtFRBC9/MC.FvFv T cells within 24 hours (HPAC PSCA+ tumor cells): more than 60%
pIC50 (293 cells [9]): ~8.52
